{"source": "the NIST ThermoML archive (doi:10.1021/acs.jced.6b00563)", "key": {"[1]": {"assay": "an = ratio of the nth substance listed", "details": "100 kPa, Liquid, a1 = 2; for viscosity: Falling or rolling sphere viscometry; for speed of sound: Sing-around technique in a fixed-path interferometer; for mass density: Vibrating tube method"}, "[2]": {"assay": "refractive index (Na D-line) (dimensionless); an = ratio of the nth substance listed", "details": "100 kPa, Liquid, Standard Abbe refractometry, a1 = 2"}, "[3]": {"details": "100 kPa, Liquid; for viscosity: Falling or rolling sphere viscometry; for speed of sound: Sing-around technique in a fixed-path interferometer; for mass density: Vibrating tube method"}, "[4]": {"assay": "refractive index (Na D-line) (dimensionless)", "details": "100 kPa, Liquid, Standard Abbe refractometry"}}, "note": "± gives the expanded uncertainty stated by the source.", "data": [{"smiles": "CC(=O)CCC(=O)O", "note": "[4-oxopentanoic acid] + C[N+](C)(C)CCO.[Cl-]", "values": [{"measurement": "viscosity", "setting": "[1]; 293.15 K", "value": "365.3 ± 24", "unit": "mPa·s"}, {"measurement": "speed of sound", "setting": "[1]; 293.15 K", "value": "1764 ± 2", "unit": "m/s"}, {"measurement": "mass density", "setting": "[1]; 293.15 K", "value": "1141.05 ± 1.2", "unit": "kg/m3"}, {"measurement": "viscosity", "setting": "[1]; 298.15 K", "value": "255.8 ± 14", "unit": "mPa·s"}, {"measurement": "speed of sound", "setting": "[1]; 298.15 K", "value": "1749 ± 2", "unit": "m/s"}, {"measurement": "mass density", "setting": "[1]; 298.15 K", "value": "1137.7 ± 1.2", "unit": "kg/m3"}, {"measurement": "viscosity", "setting": "[1]; 303.15 K", "value": "185.5 ± 8.2", "unit": "mPa·s"}, {"measurement": "speed of sound", "setting": "[1]; 303.15 K", "value": "1734 ± 2", "unit": "m/s"}, {"measurement": "mass density", "setting": "[1]; 303.15 K", "value": "1134.34 ± 1.1", "unit": "kg/m3"}, {"measurement": "viscosity", "setting": "[1]; 308.15 K", "value": "136.5 ± 4.6", "unit": "mPa·s"}, {"measurement": "speed of sound", "setting": "[1]; 308.15 K", "value": "1720 ± 2", "unit": "m/s"}, {"measurement": "mass density", "setting": "[1]; 308.15 K", "value": "1130.99 ± 1.1", "unit": "kg/m3"}, {"measurement": "viscosity", "setting": "[1]; 313.15 K", "value": "103.7 ± 2.6", "unit": "mPa·s"}, {"measurement": "speed of sound", "setting": "[1]; 313.15 K", "value": "1707 ± 2", "unit": "m/s"}, {"measurement": "mass density", "setting": "[1]; 313.15 K", "value": "1127.63 ± 1.1", "unit": "kg/m3"}, {"measurement": "viscosity", "setting": "[1]; 318.15 K", "value": "81.5 ± 1.5", "unit": "mPa·s"}, {"measurement": "speed of sound", "setting": "[1]; 318.15 K", "value": "1693 ± 2", "unit": "m/s"}, {"measurement": "mass density", "setting": "[1]; 318.15 K", "value": "1124.3 ± 1.1", "unit": "kg/m3"}, {"measurement": "viscosity", "setting": "[1]; 323.15 K", "value": "64.8 ± 0.9", "unit": "mPa·s"}, {"measurement": "speed of sound", "setting": "[1]; 323.15 K", "value": "1680 ± 2", "unit": "m/s"}, {"measurement": "mass density", "setting": "[1]; 323.15 K", "value": "1120.98 ± 1.1", "unit": "kg/m3"}, {"measurement": "viscosity", "setting": "[1]; 328.15 K", "value": "51.7 ± 0.6", "unit": "mPa·s"}, {"measurement": "speed of sound", "setting": "[1]; 328.15 K", "value": "1667 ± 2", "unit": "m/s"}, {"measurement": "mass density", "setting": "[1]; 328.15 K", "value": "1117.68 ± 1.1", "unit": "kg/m3"}, {"measurement": "viscosity", "setting": "[1]; 333.15 K", "value": "43 ± 0.6", "unit": "mPa·s"}, {"measurement": "speed of sound", "setting": "[1]; 333.15 K", "value": "1654 ± 2", "unit": "m/s"}, {"measurement": "mass density", "setting": "[1]; 333.15 K", "value": "1114.69 ± 1.1", "unit": "kg/m3"}, {"measurement": "viscosity", "setting": "[1]; 338.15 K", "value": "34.1 ± 0.4", "unit": "mPa·s"}, {"measurement": "speed of sound", "setting": "[1]; 338.15 K", "value": "1641 ± 2", "unit": "m/s"}, {"measurement": "mass density", "setting": "[1]; 338.15 K", "value": "1111.41 ± 1.1", "unit": "kg/m3"}, {"measurement": "viscosity", "setting": "[1]; 343.15 K", "value": "28.6 ± 0.4", "unit": "mPa·s"}, {"measurement": "speed of sound", "setting": "[1]; 343.15 K", "value": "1628 ± 2", "unit": "m/s"}, {"measurement": "mass density", "setting": "[1]; 343.15 K", "value": "1108.1 ± 1.1", "unit": "kg/m3"}, {"measurement": "refractive index", "setting": "[2]; 293.15 K", "value": "1.46987 ± 0.00034"}, {"measurement": "refractive index", "setting": "[2]; 298.15 K", "value": "1.46867 ± 0.00034"}, {"measurement": "refractive index", "setting": "[2]; 303.15 K", "value": "1.4673 ± 0.00034"}, {"measurement": "refractive index", "setting": "[2]; 308.15 K", "value": "1.46595 ± 0.00034"}, {"measurement": "refractive index", "setting": "[2]; 313.15 K", "value": "1.46457 ± 0.00034"}, {"measurement": "refractive index", "setting": "[2]; 318.15 K", "value": "1.4632 ± 0.00034"}, {"measurement": "refractive index", "setting": "[2]; 323.15 K", "value": "1.4618 ± 0.00034"}, {"measurement": "refractive index", "setting": "[2]; 328.15 K", "value": "1.46041 ± 0.00034"}, {"measurement": "refractive index", "setting": "[2]; 333.15 K", "value": "1.45902 ± 0.00034"}, {"measurement": "refractive index", "setting": "[2]; 338.15 K", "value": "1.45761 ± 0.00034"}, {"measurement": "refractive index", "setting": "[2]; 343.15 K", "value": "1.45623 ± 0.00034"}]}, {"smiles": "CCCCO", "note": "[butan-1-ol]", "values": [{"measurement": "viscosity", "setting": "[3]; 298.15 K", "value": "2.568 ± 0.032", "unit": "mPa·s"}, {"measurement": "speed of sound", "setting": "[3]; 298.15 K", "value": "1240 ± 2", "unit": "m/s"}, {"measurement": "mass density", "setting": "[3]; 298.15 K", "value": "805.75 ± 0.81", "unit": "kg/m3"}, {"measurement": "viscosity", "setting": "[3]; 308.15 K", "value": "1.998 ± 0.025", "unit": "mPa·s"}, {"measurement": "speed of sound", "setting": "[3]; 308.15 K", "value": "1206 ± 2", "unit": "m/s"}, {"measurement": "mass density", "setting": "[3]; 308.15 K", "value": "798.06 ± 0.81", "unit": "kg/m3"}, {"measurement": "viscosity", "setting": "[3]; 318.15 K", "value": "1.578 ± 0.019", "unit": "mPa·s"}, {"measurement": "speed of sound", "setting": "[3]; 318.15 K", "value": "1173 ± 2", "unit": "m/s"}, {"measurement": "mass density", "setting": "[3]; 318.15 K", "value": "790.22 ± 0.8", "unit": "kg/m3"}, {"measurement": "refractive index", "setting": "[4]; 298.15 K", "value": "1.39697 ± 0.00031"}, {"measurement": "refractive index", "setting": "[4]; 308.15 K", "value": "1.39281 ± 0.00031"}, {"measurement": "refractive index", "setting": "[4]; 318.15 K", "value": "1.38857 ± 0.00031"}]}, {"smiles": "CCO", "note": "[ethanol]", "values": [{"measurement": "viscosity", "setting": "[3]; 298.15 K", "value": "1.083 ± 0.013", "unit": "mPa·s"}, {"measurement": "speed of sound", "setting": "[3]; 298.15 K", "value": "1143 ± 2", "unit": "m/s"}, {"measurement": "mass density", "setting": "[3]; 298.15 K", "value": "785.06 ± 0.79", "unit": "kg/m3"}, {"measurement": "viscosity", "setting": "[3]; 308.15 K", "value": "0.901 ± 0.011", "unit": "mPa·s"}, {"measurement": "speed of sound", "setting": "[3]; 308.15 K", "value": "1109 ± 2", "unit": "m/s"}, {"measurement": "mass density", "setting": "[3]; 308.15 K", "value": "776.4 ± 0.78", "unit": "kg/m3"}, {"measurement": "viscosity", "setting": "[3]; 318.15 K", "value": "0.758 ± 0.009", "unit": "mPa·s"}, {"measurement": "speed of sound", "setting": "[3]; 318.15 K", "value": "1075 ± 2", "unit": "m/s"}, {"measurement": "mass density", "setting": "[3]; 318.15 K", "value": "767.6 ± 0.78", "unit": "kg/m3"}, {"measurement": "refractive index", "setting": "[4]; 298.15 K", "value": "1.35905 ± 0.00031"}, {"measurement": "refractive index", "setting": "[4]; 308.15 K", "value": "1.35501 ± 0.00031"}, {"measurement": "refractive index", "setting": "[4]; 318.15 K", "value": "1.35083 ± 0.00031"}]}, {"smiles": "CCCCCO", "note": "[pentan-1-ol]", "values": [{"measurement": "viscosity", "setting": "[3]; 298.15 K", "value": "3.502 ± 0.044", "unit": "mPa·s"}, {"measurement": "speed of sound", "setting": "[3]; 298.15 K", "value": "1276 ± 2", "unit": "m/s"}, {"measurement": "mass density", "setting": "[3]; 298.15 K", "value": "810.88 ± 0.82", "unit": "kg/m3"}, {"measurement": "viscosity", "setting": "[3]; 308.15 K", "value": "2.662 ± 0.034", "unit": "mPa·s"}, {"measurement": "speed of sound", "setting": "[3]; 308.15 K", "value": "1242 ± 2", "unit": "m/s"}, {"measurement": "mass density", "setting": "[3]; 308.15 K", "value": "803.5 ± 0.82", "unit": "kg/m3"}, {"measurement": "viscosity", "setting": "[3]; 318.15 K", "value": "2.061 ± 0.026", "unit": "mPa·s"}, {"measurement": "speed of sound", "setting": "[3]; 318.15 K", "value": "1209 ± 2", "unit": "m/s"}, {"measurement": "mass density", "setting": "[3]; 318.15 K", "value": "795.98 ± 0.81", "unit": "kg/m3"}, {"measurement": "refractive index", "setting": "[4]; 298.15 K", "value": "1.40752 ± 0.00033"}, {"measurement": "refractive index", "setting": "[4]; 308.15 K", "value": "1.40352 ± 0.00033"}, {"measurement": "refractive index", "setting": "[4]; 318.15 K", "value": "1.39942 ± 0.00033"}]}, {"smiles": "CCCO", "note": "[propan-1-ol]", "values": [{"measurement": "viscosity", "setting": "[3]; 298.15 K", "value": "1.943 ± 0.024", "unit": "mPa·s"}, {"measurement": "speed of sound", "setting": "[3]; 298.15 K", "value": "1209 ± 2", "unit": "m/s"}, {"measurement": "mass density", "setting": "[3]; 298.15 K", "value": "799.69 ± 0.81", "unit": "kg/m3"}, {"measurement": "viscosity", "setting": "[3]; 308.15 K", "value": "1.549 ± 0.019", "unit": "mPa·s"}, {"measurement": "speed of sound", "setting": "[3]; 308.15 K", "value": "1175 ± 2", "unit": "m/s"}, {"measurement": "mass density", "setting": "[3]; 308.15 K", "value": "792.76 ± 0.8", "unit": "kg/m3"}, {"measurement": "viscosity", "setting": "[3]; 318.15 K", "value": "1.252 ± 0.016", "unit": "mPa·s"}, {"measurement": "speed of sound", "setting": "[3]; 318.15 K", "value": "1141 ± 2", "unit": "m/s"}, {"measurement": "mass density", "setting": "[3]; 318.15 K", "value": "784.45 ± 0.79", "unit": "kg/m3"}, {"measurement": "refractive index", "setting": "[4]; 298.15 K", "value": "1.38275 ± 0.00032"}, {"measurement": "refractive index", "setting": "[4]; 308.15 K", "value": "1.37857 ± 0.00032"}, {"measurement": "refractive index", "setting": "[4]; 318.15 K", "value": "1.37421 ± 0.00032"}]}]}
